Experimental data reported in patent publication US20260021092A1, “STRUCTURE-BASED DESIGN OF A NOVEL CLASS OF DRUGS FOR NEURODEGENERATIVE DISEASE” (The Regents of the University of California, priority 2022, published 2026).

Assays:
Neuro2a cells = assay: MTT cytotoxicity assay in Neuro2a cells; format: cell-based; settings: final small molecule concentration of 10 μM
Procedure: 90 μL of Neuro2a cells were plated on clear 96 well plates (Falcon 353072) at 6000 cells per well and given 24 hours to adhere to the plate. Subsequent treatment consisted of PHF samples that were coincubated with or without 100 μM of small molecules for 48 hours at 37° C., with 10 μL applied per well for a final small molecule concentration of 10 μM. After another 24-hour incubation at 37° C., 20 μL of Thiazolyl Blue Tetrazolium Bromide MTT dye (Sigma; 5 mg/mL stock in DPBS) was added to each well and further incubated for 3.5 hours at 37° C. Assay was arrested by replacement of all media with 100% DMSO and transfer to a SpectraMax MF reader. Background 700 nm readings were subtracted from the absorbance readings at 570 nm. Cells treated with 100% DMSO were designated as 0% viable and those treated only with vehicle were designated as 100% viable. Other well readings were normalized to these values.

[1] = target: T1, recombinant alpha-synuclein fibrils (Homo sapiens, UniProt P37840); assay: TEM quantification of recombinant alpha-synuclein fibrils; format: biochemical; settings: 72 hours with compound, 10 micrographs
T1 construct: made in house; host or cells: E. coli BL21(DE3) Gold
Procedure: Both compounds were incubated with equimolar ratios of recombinant alpha-synuclein fibrils (100 μM:100 μM) for 48 hours at 37° C. in 1×PBS. After incubation, Thioflavin T (ThT), a fluorescent marker of amyloid fibrils, was added to the samples and ThT fluorescence was measured. EGCG was used as a positive control for comparison. […] Next, transmission electron microscopy (EM) was performed for each sample. […] To obtain a quantitative evaluation of fibril reduction, fibrils were first incubated for 72 hours with compound, then 10 micrographs from random grid points were taken for each sample, and the numbers of fibrils per image were counted (FIG. 5c). […] Western blot analysis, staining for alpha-synuclein, was performed for fibril samples incubated with compounds for 48 hours (FIG. 5d). For untreated alpha-synuclein fibrils, we see a prominent band at 14 kDa corresponding with protein monomer. […]
For all transmission electron microscopy (TEM), 6 μL of sample were added onto 400 mesh Formvar Carbon film copper mesh grids (Electron Microscopy Sciences), then incubated for four minutes. […] For quantitation of fibrils, […] TEM images were taken per experimental condition from random points throughout the grid. Fibril counts were manually quantified per image in a blinded fashion. […]

[2] = target: T2, MSA brain-derived alpha-synuclein fibrils (Homo sapiens, UniProt P37840); assay: EM quantification of MSA brain-derived alpha-synuclein fibrils; format: biochemical; settings: incubated for 3 days, compared to control
T2 construct: Extraction of sarkosyl-insoluble alpha-synuclein fibrils from neuropathologically confirmed brain samples of patients diagnosed with MSA; from tissue; host or cells: post-mortem MSA patient brain
Procedure: Post-mortem alpha-synuclein fibrils were extracted and purified from the brain of a patient with MSA. The presence of fibrils in the extract was confirmed by electron microscopy (FIG. 3a). […] As with the recombinant fibrils, we next aimed to quantitatively assess brain-derived fibril disaggregation by EM. Compounds were incubated with MSA fibrils for 3 days, and fibrils were quantified by EM daily, with 10-15 images taken per experimental replicate.
For all transmission electron microscopy (TEM), 6 μL of sample were added onto 400 mesh Formvar Carbon film copper mesh grids (Electron Microscopy Sciences), then incubated for four minutes. 6 μL of 2% uranyl acetate solution was then used to stain the grids. After 2 minutes, excess solution was blotted off and grids were left to dry for a minimum of 30 minutes. TEM images were taken on a Tecnai 12 transmission electron microscope. For quantitation of fibrils, n=20 TEM images were taken per experimental condition from random points throughout the grid. Fibril counts were manually quantified per image in a blinded fashion.
Compounds were incubated quiescently with fibril samples (both recombinant and brain-derived) for 72 hours at 37° C. […]

[3] = Brain penetration in mice (LC-MS/MRM of plasma and brain); format: in vivo, C57BL/6J mice; settings: 0.5 mg/kg tail vein injection, 1 hour after dosing, range of n=3; for concentration at 1 h: C57BL/6J, mouse, plasma, intravenous
Procedure: The compounds were administered by tail vein injection at a dose of 0.5 mg/kg of body weight to C57BL/6J mice (n=3 for each compound). […] To detect and quantify the drugs we used a sensitive, selective, and specific liquid chromatographic/tandem mass spectrometric multiple reaction monitoring (LC-MS/MRM) assay. The sample extraction protocol for plasma and brain was optimized with spiking experiments in which the authentic compounds were added to plasma and brain from drug-naive mice. […] Blood was collected by cardiac puncture and plasma was recovered as the supernatant after centrifugation (3000×g, 10 m) and stored frozen. Brains were collected by standard dissection and immediately frozen. To measure the average drug concentrations across the entire brains each left hemisphere (average wet weight 250 mg) was processed. The samples were spiked with the internal standard (IS, CNS-11F, 15 pmol in 15 μL of acetonitrile) and homogenized with a probe sonicator (Kontes microsonic cell disrupter, 30 sec) after the addition of acetonitrile/water (4:1, v/v, 2500 μL). The homogenates were divided evenly into three polypropylene microcentrifuge tubes (met) for triplicate measurements of each sample. Following centrifugation (16,100g, 5 min), the supernatants were transferred to clean mets and dried in a vacuum centrifuge. The pellets were treated with acetonitrile (25 μL) with vigorous mixing, followed by water (25 μL) with more vigorous mixing, followed by more water (50 μL) for a total volume of 100 μL. The samples were mixed again, centrifuged (16,100g, 5 min) and the supernatants were transferred to HPLC injector vials. […] These samples were processed as described above. Plasma samples (50 μL, in duplicate for each mouse) were spiked with the internal standard (IS, CNS-11F, 5 pmol in 5 μL of acetonitrile), and vigorously mixed after the addition of acetonitrile (500 μL). Following centrifugation (16,100g, 5 min), the supernatants were transferred to clean mcts and dried in a vacuum centrifuge. […] The effluent from the column was directed to an electrospray ion source (Agilent Jet Stream) connected to a triple quadrupole mass spectrometer (Agilent 6460) operating in the positive ion tandem mass spectrometric multiple reaction monitoring (MRM) mode in which the intensity of the transition of preselected parent ions to preselected fragment ions was recorded after signal optimization (collision energy, fragmentor voltage and collision cell accelerator voltage) with instrument manufacturer-supplied software (Mass Hunter). […] Peak areas were integrated and recorded, and a curve was constructed from the data obtained from the standards in which the ratio of drug peak area/IS peak area was plotted against the amount of drug in each sample. […]

Structure (SMILES) | neuronal cytotoxicity of compound alone (Neuro2a cells) | number of imaged fibrils per EM image [1] | average number of imaged MSA fibrils [2] | concentration in brain tissue [3] | concentration at 1 h [3] [nM]
O=C(O[C@@H]1Cc2c(O)cc(O)cc2O[C@@H]1c1cc(O)c(O)c(O)c1)c1cc(O)c(O)c(O)c1 [EGCG, epigallocatechin gallate] | no significant cytotoxicity | – | – | – | –
Cc1cc(C)c(NC(=O)Cn2nc3c4c(cccc4c2=O)-c2ccccc2-3)c(C)c1 [CNS-11, N-mesityl-2-(3-oxoindeno[1,2,3-de]phthalazin-2(3H)-yl)acetamide] | Apart from CNS-11 | reduction in number of imaged fibrils | reduction in average number of imaged fibrils | 6.9-21.5 ng/g of brain | 5 to 28.4
Cc1cccc(C)c1NC(=O)Cn1nc(Cc2ccccc2)c2ccccc2c1=O [CNS-11g, 2-(4-benzyl-1-oxophthalazin-2-yl)-N-(2,6-dimethylphenyl)acetamide] | – | reduction in number of imaged fibrils | reduction in average number of imaged fibrils | 4.2-26.1 ng/g of brain | 10.4 to 58.8
